Consider 25 compounds from patent US10308652B2, “Tricyclic heterocyclic compounds useful as inhibitors of TNF” (BRISTOL-MYERS SQUIBB COMPANY, priority 2015, dated 2019).

Where only a bound is given, the exact number is not on record here.

TNFα, sequence (P01375 77-233): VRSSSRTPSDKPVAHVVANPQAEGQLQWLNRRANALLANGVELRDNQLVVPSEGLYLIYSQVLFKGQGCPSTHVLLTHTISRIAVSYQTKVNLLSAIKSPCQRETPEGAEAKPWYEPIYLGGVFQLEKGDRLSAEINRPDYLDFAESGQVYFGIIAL

This assay addresses TNFα (Homo sapiens (Human), UniProt P01375). Briefly: TNF induced HEK-Blue assay. The conditions noted are these: TNFα 0.5 ng/ml; HEK-Blue-CD40L cells, NF-κB-driven secreted alkaline phosphatase reporter; 18 h. Type of assay: cell-based. On the procedure:
TNF or CD40L-induced HEK-Blue Assay Test compounds serially diluted in DMSO were plated in an assay plate (Labcyte, Cat. #LP-0200) at final concentrations ranging from 0.004 μM to 25μM. TNFα (final concentration 0.5 ng/ml) or CD4OL (final concentration 30 ng/ml) in assay buffer [DMEM, 4.5 g/l glucose (Gibco, Cat. 21063-029), 10% FBS (Sigma, F4135), 1% Penicillin-Streptomycin (Gibco, Cat. 15140-122), 1% Anti-Anti (Gibco, Cat. 15240-112) and 2 mM L-glutamine (Gibco, Cat. 25030-081)] was then added to the assay plate. After a 30 minute pre-incubation at 37° C. and 5% CO2, HEK-Blue-CD40L cells (InvivoGen, Cat. Code hkb-cd40) containing a NF-κB-driven secreted alkaline phosphatase reporter gene were seeded into the assay plate at a density of 20,000 cells per well. This plate was then incubated for 18 h at 37° C. and 5% CO2. Secreted alkaline phosphatase expression was measured using QUANTI-Blue (InvivoGen, Cat. Code rep-qb1) according to manufacturer's specifications and the assay plate was read on a PerkinElmer Envision at 620 nm. Inhibition data for the test compound over a range of concentrations was plotted as percentage inhibition of the test compound (100%=maximum inhibition). IC50 values were determined after correcting for background [(sample read−mean of low control)/(mean of high control−mean of low control)] where by the low control is DMSO without stimulation and high control is DMSO with stimulation. The IC50 is defined as the concentration of test compound which produces 50% inhibition and was quantified using the 4 parameter logistic equation to fit the data.
A word on the IC50: it is the midpoint of a concentration-inhibition curve. A higher IC50 goes with lower potency. `CC(C)(O)c1ncc(-c2ccc3nc4c(n3n2)[C@H](c2ccccc2OC(F)F)OC[C@@H]4O)cn1` (relative stereo) [Example 61, Cis-9-(2-(difluoromethoxy)phenyl)-2-(2-(2-hydroxypropan-2-yl)pyrimidin-5-yl)-6,9-dihydro-7H-pyrano[4′,3′:4,5]imidazo[1,2-b]pyridazin-6-ol] displayed a concentration for half-maximal inhibition (IC50) of 10 to 25 µM.

Turning to `CC(C)(O)c1ccc(-c2ccc3nc4c(n3n2)[C@H](c2ccccc2OC(F)F)NC[C@H]4O)cc1` [Example 5, (+/−)-Cis and trans-9-(2-(difluoromethoxy)phenyl)-2-(4-(2-hydroxypropan-2-yl)phenyl)-6,7,8,9-tetrahydropyrido[4′,3′:4,5]imidazo[1,2-b]pyridazin-6-ol], the IC50 was 1 to 10 µM.

`CC(C)(O)c1ccc(-c2ccc3nc4c(n3n2)[C@H](c2ccccc2OC(F)F)OC[C@@H]4O)cc1` (relative stereo) [Example 58, Cis-9-(2-(difluoromethoxy)phenyl)-2-(4-(2-hydroxypropan-2-yl)phenyl)-6,9-dihydro-7H-pyrano[4′,3′:4,5]imidazo[1,2-b]pyridazin-6-ol] displayed an IC50 of under 1 µM.

For `O=C(c1ccc(-c2ccc3nc4c(n3n2)[C@@H](c2ccccc2OC(F)F)NC[C@H]4O)cc1Cl)N1CCOCC1` (racemic) [Example 47, (+/−)-cis-(2-chloro-4-(9-(2-(difluoromethoxy)phenyl)-6-hydroxy-6,7,8,9-tetrahydropyrido[4′,3′:4,5]imidazo[1,2-b]pyridazin-2-yl)phenyl)(morpholino)methanone], the IC50 is 1 to 10 µM.

Take “(+/−)-trans-9-(2-(difluoromethoxy)phenyl)-2-(4-(2-hydroxy-2-methylpropoxy)phenyl)-6,7,8,9-tetrahydropyrido[4′,3′:4,5]imidazo[1,2-b]pyridazin-6-ol [Example 52]”: the IC50 was 1 to 10 µM.

The compound `CC(C)COc1ccc(-c2ccc3nc4c(n3n2)[C@@H](c2ccccc2OC(F)F)NC[C@H]4O)cc1` (racemic) [Example 27, (+/−)-cis-9-(2-(difluoromethoxy)phenyl)-2-(4-isobutoxyphenyl)-6,7,8,9-tetrahydropyrido[4′,3′:4,5]imidazo[1,2-b]pyridazin-6-ol] yielded an IC50 of 1 to 10 µM.

As for `CC(C)(O)c1ncc(-c2ccc3nc4c(n3n2)C(c2ccccc2OC(F)F)NCC4)cn1` (racemic) [Example 3, (+/−)-2-(5-(9-(2-(Difluoromethoxy)phenyl)-6,7,8,9-tetrahydropyrido[4′,3′:4,5]imidazo[1,2-b]pyridazin-2-yl)pyrimidin-2-yl)propan-2-ol], the IC50 lay in the range of 1 to 10 µM.

`O=C(O)CN1CCN(c2ncc(-c3ccc4nc5c(n4n3)C(c3ccccc3OC(F)F)NCC5O)cn2)CC1` (stereo not shown) [Example 22, 2-(4-(5-(9-(2-(difluoromethoxy)phenyl)-6-hydroxy-6,7,8,9-tetrahydropyrido [4′,3′:4,5]imidazo[1,2-b]pyridazin-2-yl)pyrimidin-2-yl)piperazin-1-yl)acetic acid] yielded an IC50 of 1 to 10 µM.

Compound `CCc1ccccc1[C@@H]1NC[C@@H](O)c2nc3ccc(-c4ccc(C(C)(C)O)cc4)nn3c21` (racemic) [Example 24, (+/−)-trans-9-(2-ethylphenyl)-2-(4-(2-hydroxypropan-2-yl)phenyl)-6,7,8,9-tetrahydropyrido[4′,3′:4,5]imidazo[1,2-b]pyridazin-6-ol] had an IC50 of under 1 µM.

Turning to `COc1ccc(-c2ccc3nc4c(n3n2)[C@H](c2ccccc2OC(F)F)NC[C@H]4O)cn1` (racemic) [Example 51, (+/−)-trans-9-(2-(difluoromethoxy)phenyl)-2-(6-methoxypyridin-3-yl)-6,7,8,9-tetrahydropyrido[4′,3′:4,5]imidazo[1,2-b]pyridazin-6-ol], the half-inhibitory concentration (IC50) is 10 to 25 µM.

`CC(C)(O)c1ncc(-c2ccc3nc4c(n3n2)C(c2ccccc2OC(F)F)OCC4)cn1` (stereo not shown) [Example 63, 2-(5-(9-(2-(Difluoromethoxy)phenyl)-7,9-dihydro-6H-pyrano[4′,3′:4,5]imidazo[1,2-b]pyridazin-2-yl)pyrimidin-2-yl)propan-2-ol] registered an IC50 of under 1 µM.

With `CC(C)(O)c1ccc(-c2ccc3nc4c(n3n2)[C@@H](c2ccc(F)cc2C(F)(F)F)NC[C@H]4O)cc1` (racemic) [Example 39, (+/−)-cis-9-(4-fluoro-2-(trifluoromethyl)phenyl)-2-(4-(2-hydroxypropan-2-yl)phenyl)-6,7,8,9-tetrahydropyrido[4′,3′:4,5]imidazo[1,2-b]pyridazin-6-ol], the IC50 was under 1 µM.

Compound `CC(C)(O)c1ccc(-c2ccc3nc4c(n3n2)C(c2ccccc2OC(F)F)OCC4(C)O)cc1` (stereo not shown) [Example 59, 9-(2-(Difluoromethoxy)phenyl)-2-(4-(2-hydroxypropan-2-yl)phenyl)-6-methyl-6,9-dihydro-7H-pyrano[4′,3′:4,5]imidazo[1,2-b]pyridazin-6-ol] returned a concentration for half-maximal inhibition (IC50) of 1 to 10 µM.

As to `COc1ccc(-c2ccc3nc4c(n3n2)C(c2ccccc2OC(F)F)NCC4)cn1` (racemic) [Example 1, (+/−)-9-(2-(Difluoromethoxy)phenyl)-2-(6-methoxypyridin-3-yl)-6,7,8,9-tetrahydropyrido[4′,3′:4,5]imidazo[1,2-b]pyridazine], the IC50 is under 1 µM.

Regarding `CC(C)(O)c1ccc(-c2ccc3nc4c(n3n2)C(c2ccccc2OC(F)F)OCC4)cc1` (stereo not shown) [Example 62, 2-(4-(9-(2-(Difluoromethoxy)phenyl)-7,9-dihydro-6H-pyrano[4′,3′:4,5]imidazo[1,2-b]pyridazin-2-yl)phenyl)propan-2-ol], the IC50 is under 1 µM.

`CC(C)(O)c1ccc(-c2ccc3nc4c(n3n2)[C@@H](c2ccccc2OC(F)F)NC[C@H]4F)cc1` [Example 13, cis-(1R,4R)-2-(4-(9-(2-(difluoromethoxy)phenyl)-6-fluoro-6,7,8,9-tetrahydropyrido[4′,3′:4,5]imidazo[1,2-b]pyridazin-2-yl)phenyl)propan-2-ol] came in with an IC50 of under 1 µM.

Take `Cc1cc(F)ccc1[C@@H]1NC[C@@H](O)c2nc3ccc(-c4ccc(C(C)(C)O)cc4)nn3c21` (racemic) [Example 38, (+/−)-trans-9-(4-fluoro-2-methylphenyl)-2-(4-(2-hydroxypropan-2-yl)phenyl)-6,7,8,9-tetrahydropyrido[4′,3′:4,5]imidazo[1,2-b]pyridazin-6-ol]: the IC50 lay within 1 to 10 µM.

On to `CC(C)Oc1ccc(-c2ccc3nc4c(n3n2)[C@@H](c2ccccc2OC(F)F)NC[C@H]4O)cc1` (racemic) [Example 32, (+/−)-cis-9-(2-(difluoromethoxy)phenyl)-2-(4-isopropoxyphenyl)-6,7,8,9-tetrahydropyrido[4′,3′:4,5]imidazo[1,2-b]pyridazin-6-ol], for which the IC50 fell in the range of 1 to 10 µM.

For the compound `O=C(NC1CC1)c1ccc(-c2ccc3nc4c(n3n2)C(c2ccccc2OC(F)F)NCC4O)cn1` (stereo not shown) [Example 21, N-cyclopropyl-5-(9-(2-(difluoromethoxy)phenyl)-6-hydroxy-6,7,8,9-tetrahydropyrido[4′,3′:4,5]imidazo[1,2-b]pyridazin-2-yl)picolinamide], the IC50 lay in the range of 1 to 10 µM.

In turn, `CC(C)(C)COc1ccc(-c2ccc3nc4c(n3n2)[C@@H](c2ccccc2OC(F)F)NC[C@H]4O)cc1` (racemic) [Example 42, (+/−)-cis-9-(2-(difluoromethoxy)phenyl)-2-(4-(neopentyloxy)phenyl)-6,7,8,9-tetrahydropyrido[4′,3′:4,5]imidazo[1,2-b]pyridazin-6-ol] displayed an IC50 of under 1 µM.

Consider “(+/−)-cis-9-(2-(difluoromethoxy)phenyl)-2-(4-morpholinophenyl)-6,7,8,9-tetrahydropyrido[4′,3′:4,5]imidazo[1,2-b]pyridazin-6-ol [Example 45]”, for which the IC50 lay within 1 to 10 µM.

`CC(C)(O)c1ccc(-c2ccc3nc4c(n3n2)[C@H](c2ccccc2OC(F)F)NC[C@@H]4O)cc1` (racemic) [Example 4, (+/−)-cis-9-(2-(difluoromethoxy)phenyl)-2-(4-(2-hydroxypropan-2-yl)phenyl)-6,7,8,9-tetrahydropyrido[4′,3′:4,5]imidazo[1,2-b]pyridazin-6-ol] yielded a 50% inhibitory concentration (IC50) of under 1 µM.

Consider `CC(C)(O)c1ccc(-c2ccc3nc4c(n3n2)[C@H](c2ccccc2OC(F)F)NC[C@@H]4F)cc1` (racemic) [Example 8, (+/−)-Cis-2-(4-((6S,9S)-9-(2-(difluoromethoxy)phenyl)-6-fluoro-6,7,8,9-tetrahydropyrido [4′,3′:4,5]imidazo[1,2-b]pyridazin-2-yl)phenyl)propan-2-ol], for which the IC50 was under 1 µM.

Compound `O[C@@H]1CN[C@H](c2ccccc2OC(F)F)c2c1nc1ccc(-c3ccc(C4(O)CC4)cc3)nn21` (racemic) [Example 36, (+/−)-cis-9-(2-(difluoromethoxy)phenyl)-2-(4-(1-hydroxycyclopropyl)phenyl)-6,7,8,9-tetrahydropyrido [4′,3′:4,5]imidazo[1,2-b]pyridazin-6-ol] returned an IC50 of 1 to 10 µM.

The compound `CC(C)(O)c1ccc(-c2ccc3nc4c(n3n2)[C@H](c2cc(Cl)ccc2OC(F)F)NC[C@H]4O)cc1` (racemic) [Example 28, (+/−)-trans-9-(5-chloro-2-(difluoromethoxy)phenyl)-2-(4-(2-hydroxypropan-2-yl)phenyl)-6,7,8,9-tetrahydropyrido[4′,3′:4,5]imidazo[1,2-b]pyridazin-6-ol] had an IC50 of 1 to 10 µM.
